In patent US5455233A, “Oligoribonucleoside and oligodeoxyribonucleoside boranophosphates” (University of North Carolina, priority 1992, dated 1995):

Legend:
serum cholesterol = assay: Antihyperlipidemic activity: serum cholesterol levels in male CF1 mice; type: in vivo; details: for Percent Inhibition, Serum Cholesterol, Day 9: Day 9, 8 mg/kg intraperitoneally; for Percent Inhibition, Serum Cholesterol, Day 16: Day 16, 8 mg/kg intraperitoneally
Protocol: (§1) Compounds to be tested were suspended in 1% aqueous carboxymethylcellulose,homogenized and administered to male CF1 mice (25 g) intraperitoneally for 16d. On days 9 and 16, blood was obtained by tail vein bleeding, and the serum was separated by centrifugation for three minutes. The serum cholesterol levels were determined by a modification of the Liebermann-Burchard reaction in accordance with known techniques. See A. Ness, et al., Clin. Chim. Acta 10, 229 (1964). Serum triglyceride levels were determined with a commercial kit, the Fisher Hycel Triglyceride Test Kit, for a different group of animals bled on day 16.

serum triglyceride = assay: Antihyperlipidemic activity: serum triglyceride levels in male CF1 mice; type: in vivo; details: 8 mg/kg intraperitoneally
Protocol: as §1

[1] = tested on: inflammatory response (carrageenan, hind foot); assay: Anti-inflammatory activity: carrageenan-induced paw inflammation in CF1 male mice; type: in vivo; details: 8 mg/kg intraperitoneally 3 hours and 30 minutes prior to carrageenan; feet excised after 3 hours
Protocol: Anti-Inflammatory Activity CF1 male mice (~25 g) were administered test drugs at 5-40 mg/kg in 0.05% Tween 80-H2 O intraperitoneally 3 hours prior to and 30 minutes prior to the injection of 0.2 ml of 1% carrageenan in 0.9% saline into the plantar surface of the right hind foot. Saline was injected into the left hind foot, which serves as a base line. After 3 hours, both feet were excised at the tibiotarsal (ankle) joint according to standard procedures. See C. Winter et al., Proc. Soc. Expt. Biol Med. 544, 111 (1962); A. Roszkawski et al., J. Pharm. Exp. Ther. 179, 114 (1971). Control mice afforded a 78±3 mg increase in paw weight.

[2] = tested on: KB epidermoid oral nesopharnyx; assay: Cytotoxic activity, KB epidermoid oral nesopharnyx; type: cell-based; details: cell density estimated when controls converged
Protocol: The cytotoxic activity of oligonucleoside boranophosphates of the present invention was tested on the following neoplastic cell lines:
6. KB epidermoid oral nesopharnyx. R. Geran, supra; H. Eagle, Proc. Soc. Expt. Biol. 89, 362 (1955) (grown in EMEM+5% calf serum).
The cytotoxic screens were conducted according to NIH protocols, see E. Huang et al., J. Pharm. Sci. 61, 108 (1972), with 10^4 cells, growth medium, antibiotics and drugs from 0.5 to 100 μg/ml final concentration. For the L1210, Hela-S, amd Tmolt, (i.e. the suspended cells), the incubations were conducted in sterile test tubes in a final volume of 1 ml for 72 hr at 37° C. in a CO2 incubator. The cells on the third day were still in log growth phase. The number of cells/ml are determined using trypan blue exclusion and a hemocytometer. See, e.g., R. Geran, supra. For solid tumors 1×10^4 cells are plated with 1 ml of medium+ antibiotics and the other components of growth. When the controls have converged (≈95%) then the density of the cells is estimated and the ED50 values calculated.

How did the “Percent Inhibition, Serum Cholesterol, Day 9” value (serum cholesterol) turn out when “thymidylyl[3'-5']-(3'-acetylthymidylyl) (borane)phosphonate methyl ester [Compound A]” was run?
Its value is 38%.

What about the “Percent Inhibition, Serum Cholesterol, Day 16” value (serum cholesterol) of the same substance?
The value was 46%.

And the “Percent Inhibition, Serum Triglyceride, Day 16” value (serum triglyceride)?
The value was 12%.

What about the “Percent Inhibition of the inflammatory response” value [1] of the same substance?
Its value is 37%.

And the ED50, KB [2]?
Its ED50, KB is 3.51 µg/mL.

Which “Percent Inhibition, Serum Cholesterol, Day 9” value (serum cholesterol) does the source give for “thymidylyl[3'-5']thymidylyl[3'-5'](3'-acetylthymidylyl) boranephosphonate dimethyl ester [Compound T]” here?
The value was 33%.

What about the “Percent Inhibition, Serum Cholesterol, Day 16” value (serum cholesterol) of the same substance?
The value was 32%.

And the “Percent Inhibition, Serum Triglyceride, Day 16” value (serum triglyceride)?
Its value is 18%.

What about the “Percent Inhibition of the inflammatory response” value [1] of the same substance?
Its value is 40%.

What about the ED50, KB [2] of the same substance?
The ED50, KB was 0.61 µg/mL.
